Source: ChEMBL document CHEMBL3627714, “Development of a novel class of potent and selective FIXa inhibitors” (Bioorg Med Chem Lett, 2015)
Values belong to the compound of their own block, whether it stands above or below them.

Columns and labels:
Coagulation factor IX = Coagulation factor IX (Homo sapiens, UniProt P00740); test: Inhibition of human coagulation factor 9a using fluorescent peptide CH3SO2-D-CHG-Gly-Arg-AFC-AcoH as substrate
Coagulation factor X = Coagulation factor X (Homo sapiens, UniProt P00742); test: Inhibition of human coagulation factor 10a using fluorescent peptide nAcetyl-KPR-AFC as substrate
[1] = Oral bioavailability in rat at 2 mg/kg; type: ADME, organism-based; conditions: in vivo
Rattus norvegicus = test: Dose normalized AUC in rat at 2 mg/kg, po; type: ADME, organism-based; conditions: in vivo
[2] = Half life in rat at 2 mg/kg, po and 0.5 mg/kg, iv; type: ADME, organism-based; conditions: in vivo
[3] = Clearance in rat at 2 mg/kg, po and 0.5 mg/kg, iv; type: ADME, organism-based; conditions: in vivo
Cytochrome P450 3A4 = Cytochrome P450 3A4 (Homo sapiens, UniProt P08684); test: Inhibition of CYP3A4 (unknown origin); type: ADME
Cytochrome P450 2D6 = Cytochrome P450 2D6 (Homo sapiens, UniProt P10635); test: Inhibition of CYP2D6 (unknown origin); type: ADME
Cytochrome P450 2C9 = Cytochrome P450 2C9 (Homo sapiens, UniProt P11712); test: Inhibition of CYP2C9 (unknown origin); type: ADME
Cytochrome P450 2C8 = biological target: T1, Cytochrome P450 2C8 (Homo sapiens, UniProt P10632); test: Inhibition of CYP2C8 (unknown origin); type: ADME
T1 sequence (P10632 whole entry): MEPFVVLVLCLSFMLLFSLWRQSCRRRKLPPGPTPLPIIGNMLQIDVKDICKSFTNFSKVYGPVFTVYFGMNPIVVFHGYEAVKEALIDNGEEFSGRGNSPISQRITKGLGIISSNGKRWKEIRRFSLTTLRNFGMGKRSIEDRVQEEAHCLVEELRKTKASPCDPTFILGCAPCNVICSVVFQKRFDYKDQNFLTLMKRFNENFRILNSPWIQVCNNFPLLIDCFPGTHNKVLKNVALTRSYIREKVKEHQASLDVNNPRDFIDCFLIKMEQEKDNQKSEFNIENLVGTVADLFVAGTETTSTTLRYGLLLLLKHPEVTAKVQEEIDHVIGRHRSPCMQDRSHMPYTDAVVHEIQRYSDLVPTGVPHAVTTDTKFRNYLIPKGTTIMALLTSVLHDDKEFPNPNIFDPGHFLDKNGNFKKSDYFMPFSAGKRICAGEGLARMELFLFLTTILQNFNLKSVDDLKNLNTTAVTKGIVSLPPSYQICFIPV

[4] = biological target: Voltage-gated inwardly rectifying potassium channel KCNH2 (Homo sapiens, UniProt Q12809)
Plasma [5] = test: Anticoagulant activity in 0.1 pM recombinant coagulation factor 11a stimulated human CTI-citrated plasma assessed as inhibition of thrombin generation incubated for 5 mins by calibrated automated thrombogram analysis; type: functional, cell-free
Plasma [6] = test: Anticoagulant activity in 0.3 pM recombinant coagulation factor 11a stimulated human CTI-citrated plasma assessed as inhibition of thrombin generation incubated for 5 mins by calibrated automated thrombogram analysis; type: functional, cell-free
Plasma [7] = test: Anticoagulant activity in 1 pM recombinant coagulation factor 11a stimulated human CTI-citrated plasma assessed as inhibition of thrombin generation incubated for 5 mins by calibrated automated thrombogram analysis; type: functional, cell-free
Plasma [8] = test: Anticoagulant activity in 3 pM recombinant coagulation factor 11a stimulated human CTI-citrated plasma assessed as inhibition of thrombin generation incubated for 5 mins by calibrated automated thrombogram analysis; type: functional, cell-free
Plasma [9] = test: Anticoagulant activity in 10 pM recombinant coagulation factor 11a stimulated human CTI-citrated plasma assessed as inhibition of thrombin generation incubated for 5 mins by calibrated automated thrombogram analysis; type: functional, cell-free
Plasma [10] = test: Anticoagulant activity in 0.3 pM tissue factor stimulated human CTI-citrated plasma assessed as inhibition of thrombin generation incubated for 5 mins by calibrated automated thrombogram analysis; type: functional, cell-free
Plasma [11] = test: Anticoagulant activity in 1 pM tissue factor stimulated human CTI-citrated plasma assessed as inhibition of thrombin generation incubated for 5 mins by calibrated automated thrombogram analysis; type: functional, cell-free
Plasma [12] = test: Anticoagulant activity in 3 pM tissue factor stimulated human CTI-citrated plasma assessed as inhibition of thrombin generation incubated for 5 mins by calibrated automated thrombogram analysis; type: functional, cell-free
Plasma [13] = test: Anticoagulant activity in 10 pM tissue factor stimulated human CTI-citrated plasma assessed as inhibition of thrombin generation incubated for 5 mins by calibrated automated thrombogram analysis; type: functional, cell-free
Plasma [14] = test: Anticoagulant activity in 20 pM tissue factor stimulated human CTI-citrated plasma assessed as inhibition of thrombin generation incubated for 5 mins by calibrated automated thrombogram analysis; type: functional, cell-free

Cytochrome P450 3A4, sequence (P08684 whole entry): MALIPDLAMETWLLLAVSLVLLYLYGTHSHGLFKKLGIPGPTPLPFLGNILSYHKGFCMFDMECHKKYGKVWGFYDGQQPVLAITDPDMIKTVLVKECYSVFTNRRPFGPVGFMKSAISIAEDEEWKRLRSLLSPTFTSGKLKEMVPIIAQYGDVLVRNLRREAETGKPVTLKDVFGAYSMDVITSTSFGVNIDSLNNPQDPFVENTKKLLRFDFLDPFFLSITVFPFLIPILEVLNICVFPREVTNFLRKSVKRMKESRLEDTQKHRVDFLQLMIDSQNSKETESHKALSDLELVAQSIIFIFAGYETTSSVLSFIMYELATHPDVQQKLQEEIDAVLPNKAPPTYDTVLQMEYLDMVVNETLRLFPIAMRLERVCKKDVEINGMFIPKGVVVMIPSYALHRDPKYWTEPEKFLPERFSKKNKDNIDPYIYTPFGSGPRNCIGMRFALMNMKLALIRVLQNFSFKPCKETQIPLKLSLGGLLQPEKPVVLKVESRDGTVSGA
Coagulation factor X, sequence (P00742 41-179 limits assumed): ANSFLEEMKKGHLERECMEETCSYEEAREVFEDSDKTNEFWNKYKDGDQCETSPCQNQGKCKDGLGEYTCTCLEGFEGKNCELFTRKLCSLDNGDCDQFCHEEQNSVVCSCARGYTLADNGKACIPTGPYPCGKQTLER
Coagulation factor X, sequence (P00742 235-488 limits assumed): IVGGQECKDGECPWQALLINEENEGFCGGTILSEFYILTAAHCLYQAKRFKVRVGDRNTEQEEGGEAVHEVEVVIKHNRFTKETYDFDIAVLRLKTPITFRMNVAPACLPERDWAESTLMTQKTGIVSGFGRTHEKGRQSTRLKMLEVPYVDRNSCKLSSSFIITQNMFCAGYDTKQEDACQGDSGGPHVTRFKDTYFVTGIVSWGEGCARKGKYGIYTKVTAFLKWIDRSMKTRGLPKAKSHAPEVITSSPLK
Coagulation factor IX, sequence (P00740 47-191 limits assumed): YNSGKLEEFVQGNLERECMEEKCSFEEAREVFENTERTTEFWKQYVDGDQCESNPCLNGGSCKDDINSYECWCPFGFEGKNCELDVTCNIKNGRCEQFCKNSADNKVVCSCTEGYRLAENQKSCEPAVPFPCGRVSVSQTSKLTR
Coagulation factor IX, sequence (P00740 227-461 limits assumed): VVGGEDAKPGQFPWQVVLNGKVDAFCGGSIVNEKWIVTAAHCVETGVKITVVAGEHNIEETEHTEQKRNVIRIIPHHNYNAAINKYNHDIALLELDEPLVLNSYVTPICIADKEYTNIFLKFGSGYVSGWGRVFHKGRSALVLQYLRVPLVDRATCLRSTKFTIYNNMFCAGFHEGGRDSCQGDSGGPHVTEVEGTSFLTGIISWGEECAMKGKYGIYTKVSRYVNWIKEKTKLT
Voltage-gated inwardly rectifying potassium channel KCNH2, sequence (Q12809 whole entry): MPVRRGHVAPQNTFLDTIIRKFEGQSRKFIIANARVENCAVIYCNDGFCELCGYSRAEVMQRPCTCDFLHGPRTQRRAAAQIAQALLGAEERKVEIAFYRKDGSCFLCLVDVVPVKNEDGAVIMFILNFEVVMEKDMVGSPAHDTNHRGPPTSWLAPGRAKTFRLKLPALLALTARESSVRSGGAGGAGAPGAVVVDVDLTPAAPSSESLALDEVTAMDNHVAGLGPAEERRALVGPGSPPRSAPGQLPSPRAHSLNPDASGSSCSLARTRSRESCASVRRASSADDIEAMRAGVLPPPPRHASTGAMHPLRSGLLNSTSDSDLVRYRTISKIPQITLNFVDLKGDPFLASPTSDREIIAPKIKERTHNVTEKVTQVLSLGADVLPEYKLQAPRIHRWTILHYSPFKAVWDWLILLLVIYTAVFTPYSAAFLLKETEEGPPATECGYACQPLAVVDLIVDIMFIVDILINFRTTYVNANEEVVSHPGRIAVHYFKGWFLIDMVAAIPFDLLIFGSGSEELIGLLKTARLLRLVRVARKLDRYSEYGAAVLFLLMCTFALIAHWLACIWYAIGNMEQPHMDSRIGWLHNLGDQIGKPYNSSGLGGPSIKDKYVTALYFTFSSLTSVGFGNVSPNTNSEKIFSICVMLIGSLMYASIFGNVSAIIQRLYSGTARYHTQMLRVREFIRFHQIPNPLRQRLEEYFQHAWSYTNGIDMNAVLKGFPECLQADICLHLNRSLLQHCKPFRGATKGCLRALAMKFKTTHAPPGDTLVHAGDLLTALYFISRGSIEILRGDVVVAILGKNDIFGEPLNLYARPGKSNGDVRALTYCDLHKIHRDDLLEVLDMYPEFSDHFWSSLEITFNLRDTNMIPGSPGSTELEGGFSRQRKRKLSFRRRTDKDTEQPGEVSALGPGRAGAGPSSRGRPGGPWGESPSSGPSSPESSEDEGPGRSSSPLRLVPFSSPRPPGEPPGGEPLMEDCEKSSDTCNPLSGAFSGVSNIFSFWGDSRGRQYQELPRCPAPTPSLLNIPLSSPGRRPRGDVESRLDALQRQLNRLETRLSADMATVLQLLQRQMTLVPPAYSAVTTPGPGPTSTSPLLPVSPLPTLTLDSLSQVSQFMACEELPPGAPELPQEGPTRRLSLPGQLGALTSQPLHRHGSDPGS
Cytochrome P450 2C9, sequence (P11712 whole entry): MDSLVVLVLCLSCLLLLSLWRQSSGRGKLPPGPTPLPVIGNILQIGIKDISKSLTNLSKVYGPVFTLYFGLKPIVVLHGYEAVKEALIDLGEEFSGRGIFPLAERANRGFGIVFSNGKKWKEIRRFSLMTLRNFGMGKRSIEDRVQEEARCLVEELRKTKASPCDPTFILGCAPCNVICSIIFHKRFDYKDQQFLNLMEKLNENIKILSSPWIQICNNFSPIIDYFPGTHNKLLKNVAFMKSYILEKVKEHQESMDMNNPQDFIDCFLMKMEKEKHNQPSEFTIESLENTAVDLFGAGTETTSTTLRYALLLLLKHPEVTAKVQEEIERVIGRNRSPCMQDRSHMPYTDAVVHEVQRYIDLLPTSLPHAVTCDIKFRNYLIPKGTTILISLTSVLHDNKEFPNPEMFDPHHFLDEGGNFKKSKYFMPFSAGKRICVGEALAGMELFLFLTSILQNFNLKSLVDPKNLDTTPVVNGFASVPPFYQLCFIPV
Cytochrome P450 2D6, sequence (P10635 whole entry): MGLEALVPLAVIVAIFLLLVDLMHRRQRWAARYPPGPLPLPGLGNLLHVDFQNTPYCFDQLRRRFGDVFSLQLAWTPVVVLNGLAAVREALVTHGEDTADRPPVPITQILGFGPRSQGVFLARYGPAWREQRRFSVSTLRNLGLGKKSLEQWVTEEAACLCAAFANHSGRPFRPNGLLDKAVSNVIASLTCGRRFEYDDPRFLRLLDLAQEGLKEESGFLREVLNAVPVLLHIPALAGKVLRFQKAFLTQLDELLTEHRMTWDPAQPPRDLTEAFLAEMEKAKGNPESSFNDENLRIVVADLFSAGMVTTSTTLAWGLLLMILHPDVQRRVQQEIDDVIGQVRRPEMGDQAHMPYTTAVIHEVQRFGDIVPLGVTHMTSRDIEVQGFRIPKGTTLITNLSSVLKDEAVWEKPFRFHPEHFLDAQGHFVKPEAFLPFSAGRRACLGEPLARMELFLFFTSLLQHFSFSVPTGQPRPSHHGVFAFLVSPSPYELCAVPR

Compound: Cc1cc2nc([C@@H](CNC(=O)c3c(F)cc(-n4cnnc4)cc3Cl)c3ccccc3)[nH]c2cc1C
Ki (Coagulation factor IX): 15.2 nM | Ki (Coagulation factor X): 544 nM

Compound: Cc1cc2nc([C@@H](CNC(=O)c3c(Cl)cc(-n4cnnc4)cc3C(F)(F)F)c3ccccc3)[nH]c2cc1C
Ki (Coagulation factor IX): 21.8 nM | Ki (Coagulation factor X): 340 nM

Compound: COc1cc(-n2cnnc2)cc(Cl)c1C(=O)NC[C@@H](c1ccccc1)c1nc2cc(C)c(C)cc2[nH]1
Ki (Coagulation factor IX): 14.8 nM | Ki (Coagulation factor X): 245 nM

Compound: Cc1ncn(-c2cc(Cl)c(C(=O)NC[C@@H](c3ccccc3)c3nc4cc(C)c(C)cc4[nH]3)c(Cl)c2)n1
Ki (Coagulation factor IX): 20.8 nM | Ki (Coagulation factor X): 2470 nM

Compound: Cc1cc2nc([C@@H](CNC(=O)c3ccc(-n4cnnc4)cc3Cl)c3ccccc3F)[nH]c2cc1C
Ki (Coagulation factor IX): 19.3 nM | Ki (Coagulation factor X): 412 nM

Compound: Cc1cc2nc([C@@H](CNC(=O)c3ccc(-n4cnnc4)cc3Cl)c3ccc(F)cc3)[nH]c2cc1C
Ki (Coagulation factor IX): 8.4 nM | Ki (Coagulation factor X): 1510 nM

Compound: Cc1cc2nc([C@@H](CNC(=O)c3ccc(-n4cnnc4)cc3Cl)c3cccnc3)[nH]c2cc1C
Ki (Coagulation factor IX): 15.4 nM | Ki (Coagulation factor X): 1600 nM

Compound: Cc1ncn(-c2cc(Cl)c(C(=O)NC[C@@H](c3cccc(F)c3)c3nc4cc(C)c(Cl)cc4[nH]3)c(Cl)c2)n1
Ki (Coagulation factor IX): 13.6 nM | Ki (Coagulation factor X): 15200 nM

Compound: Cc1ncn(-c2cc(Cl)c(C(=O)NC[C@@H](c3cccc(F)c3)c3nc4ccc(Cl)cc4[nH]3)c(Cl)c2)n1
Ki (Coagulation factor IX): 9.8 nM | Ki (Coagulation factor X): 20700 nM | bioavailability [1]: 48.2% | AUC/dose (Rattus norvegicus): 1.74 µM·h/mg/kg | half-life [2]: 0.8 h | clearance [3]: 8.77 mL/min/kg | IC50 (Cytochrome P450 3A4): > 50000 nM | IC50 (Cytochrome P450 2D6): 30400 nM | IC50 (Cytochrome P450 2C9): 19800 nM | IC50 (Cytochrome P450 2C8): 5280 nM

Compound: Cc1ncn(-c2cc(Cl)c(C(=O)NC[C@@H](c3cccc(F)c3)c3ccc4[nH]c(C)nc4c3)c(Cl)c2)n1
Ki (Coagulation factor IX): 9.1 nM | Ki (Coagulation factor X): 2800 nM | bioavailability [1]: 11.1% | AUC/dose (Rattus norvegicus): 0.097 µM·h/mg/kg | half-life [2]: 1.24 h | clearance [3]: 36.5 mL/min/kg | IC50 (Cytochrome P450 3A4): > 50000 nM | IC50 (Cytochrome P450 2D6): 31600 nM | IC50 (Cytochrome P450 2C9): 24900 nM | IC50 (Cytochrome P450 2C8): 1570 nM | IC50 (Plasma [5]): 303 nM | IC50 (Plasma [6]): 1600 nM | IC50 (Plasma [7]): 2520 nM | IC50 (Plasma [8]): 7160 nM | IC50 (Plasma [9]): 22400 nM | IC50 (Plasma [10]): 1640 nM | IC50 (Plasma [11]): 1160 nM | IC50 (Plasma [12]): 953 nM | IC50 (Plasma [13]): 1850 nM | IC50 (Plasma [14]): 1900 nM | IC50 [4]: 19900 nM

Compound: Cc1ncn(-c2cc(Cl)c(C(=O)NC[C@@H](c3cccc(F)c3)c3ccc4c(C)ccc(F)c4n3)c(Cl)c2)n1
Ki (Coagulation factor IX): 10.4 nM | Ki (Coagulation factor X): > 28900 nM

Compound: COc1ccc(-n2nc(C(N)=O)c3c2C(=O)N(c2ccc(N4CCCCC4=O)cc2)CC3)cc1 [APIXABAN]
IC50 (Plasma [5]): 51.3 nM | IC50 (Plasma [6]): 116 nM | IC50 (Plasma [7]): 190 nM | IC50 (Plasma [8]): 747 nM | IC50 (Plasma [9]): 2410 nM | IC50 (Plasma [10]): 47.6 nM | IC50 (Plasma [11]): 33.7 nM | IC50 (Plasma [12]): 48.4 nM | IC50 (Plasma [13]): 159 nM | IC50 (Plasma [14]): 299 nM

Now from value to compound, other results behind:

Ki (Coagulation factor IX): 3.6 nM | Ki (Coagulation factor X): 105 nM
Compound: Cc1cc2nc([C@@H](CNC(=O)c3c(Cl)cc(-n4cnnc4)cc3Cl)c3ccccc3)[nH]c2cc1C

Ki (Coagulation factor IX): 8 nM | Ki (Coagulation factor X): 195 nM
Compound: Cc1cc2nc([C@@H](CNC(=O)c3c(C)cc(-n4cnnc4)cc3Cl)c3ccccc3)[nH]c2cc1C

Ki (Coagulation factor IX): 5.7 nM | Ki (Coagulation factor X): 1010 nM
Compound: Cc1cc2nc([C@@H](CNC(=O)c3ccc(-n4cnnc4)cc3Cl)c3cccc(F)c3)[nH]c2cc1C

Ki (Coagulation factor IX): 2.9 nM | Ki (Coagulation factor X): 1930 nM | bioavailability [1]: 7.89% | AUC/dose (Rattus norvegicus): 0.056 µM·h/mg/kg | half-life [2]: 1.03 h | clearance [3]: 42.1 mL/min/kg | IC50 (Cytochrome P450 3A4): 33300 nM | IC50 (Cytochrome P450 2D6): > 50000 nM | IC50 (Cytochrome P450 2C9): 9090 nM | IC50 (Cytochrome P450 2C8): 456 nM
Compound: COc1cc2nc([C@@H](CNC(=O)c3c(Cl)cc(-n4cnc(C)n4)cc3Cl)c3cccc(F)c3)[nH]c2cc1Cl
IC50 [4]: 10900 nM

Ki (Coagulation factor IX): 6.2 nM | Ki (Coagulation factor X): > 28900 nM | bioavailability [1]: 57.3% | AUC/dose (Rattus norvegicus): 4.36 µM·h/mg/kg | half-life [2]: 1.66 h | clearance [3]: 3.84 mL/min/kg | IC50 (Cytochrome P450 3A4): > 50000 nM | IC50 (Cytochrome P450 2D6): > 50000 nM | IC50 (Cytochrome P450 2C9): 22400 nM | IC50 (Cytochrome P450 2C8): 4040 nM
Compound: Cc1ncn(-c2cc(Cl)c(C(=O)NC[C@@H](c3cccc(F)c3)c3nc4c(C)cc(Cl)cc4[nH]3)c(Cl)c2)n1
IC50 [4]: 3050 nM

Ki (Coagulation factor IX): 3.7 nM | Ki (Coagulation factor X): > 28900 nM
Compound: Cc1ncn(-c2cc(Cl)c(C(=O)NC[C@@H](c3cccc(F)c3)c3cnc4[nH]c(C)cc4c3)c(Cl)c2)n1

Ki (Coagulation factor IX): 1 nM | Ki (Coagulation factor X): > 28900 nM | bioavailability [1]: 14.1% | AUC/dose (Rattus norvegicus): 0.284 µM·h/mg/kg | half-life [2]: 1.12 h | clearance [3]: 15.5 mL/min/kg | IC50 (Cytochrome P450 3A4): > 50000 nM | IC50 (Cytochrome P450 2D6): > 50000 nM | IC50 (Cytochrome P450 2C9): 42800 nM | IC50 (Cytochrome P450 2C8): 24400 nM
Compound: Cc1ncn(-c2cc(Cl)c(C(=O)NC[C@@H](c3cccc(F)c3)c3nc4c(F)ccc(C)c4c(=O)[nH]3)c(Cl)c2)n1
IC50 [4]: > 60000 nM

Ki (Coagulation factor IX): 3.3 nM | Ki (Coagulation factor X): > 28900 nM
Compound: Cc1ncn(-c2cc(Cl)c(C(=O)NC[C@@H](c3cccc(F)c3)c3cc(=O)c4c(C)ccc(F)c4[nH]3)c(Cl)c2)n1
